From article PMC7026418, “The kinase polypharmacology landscape of clinical PARP inhibitors” (Scientific Reports, 2020)

How the values were obtained:
LATS2 = target: T1, LATS2 (Homo sapiens, UniProt Q9NRM7); assay: biochemical; design: Reaction Biology HotSpot radiometric 33P-ATP catalytic assay at Km ATP; percent inhibition versus DMSO, mean n=2; details: Km ATP
T1 sequence (Q9NRM7 1-1088): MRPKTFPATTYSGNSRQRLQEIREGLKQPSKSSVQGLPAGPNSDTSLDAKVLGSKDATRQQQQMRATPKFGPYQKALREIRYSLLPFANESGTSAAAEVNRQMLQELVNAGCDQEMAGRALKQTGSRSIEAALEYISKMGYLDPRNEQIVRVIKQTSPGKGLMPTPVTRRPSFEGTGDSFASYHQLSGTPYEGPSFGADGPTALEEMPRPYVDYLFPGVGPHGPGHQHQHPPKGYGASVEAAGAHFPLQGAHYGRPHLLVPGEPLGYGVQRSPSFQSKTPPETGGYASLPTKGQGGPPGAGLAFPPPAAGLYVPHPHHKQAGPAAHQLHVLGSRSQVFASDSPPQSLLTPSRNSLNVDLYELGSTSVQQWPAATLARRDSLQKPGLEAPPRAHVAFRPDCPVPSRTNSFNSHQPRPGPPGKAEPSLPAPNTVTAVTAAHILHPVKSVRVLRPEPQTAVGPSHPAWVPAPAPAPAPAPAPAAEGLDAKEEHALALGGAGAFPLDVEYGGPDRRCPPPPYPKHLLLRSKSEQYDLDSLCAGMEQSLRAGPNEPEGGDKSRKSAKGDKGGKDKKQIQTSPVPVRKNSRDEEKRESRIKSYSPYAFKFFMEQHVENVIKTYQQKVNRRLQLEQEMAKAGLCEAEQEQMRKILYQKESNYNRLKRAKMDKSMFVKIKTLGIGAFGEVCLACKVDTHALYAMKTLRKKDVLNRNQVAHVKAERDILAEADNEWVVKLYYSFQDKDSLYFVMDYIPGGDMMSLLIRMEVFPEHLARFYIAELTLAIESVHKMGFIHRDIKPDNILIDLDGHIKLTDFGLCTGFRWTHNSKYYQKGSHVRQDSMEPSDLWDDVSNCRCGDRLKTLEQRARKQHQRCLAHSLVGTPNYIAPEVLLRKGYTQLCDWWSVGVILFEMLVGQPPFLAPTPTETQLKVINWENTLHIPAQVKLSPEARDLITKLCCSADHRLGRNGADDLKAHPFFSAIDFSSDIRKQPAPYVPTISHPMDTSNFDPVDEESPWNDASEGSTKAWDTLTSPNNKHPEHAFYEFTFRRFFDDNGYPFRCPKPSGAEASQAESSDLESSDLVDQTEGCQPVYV
Description: (§1) Unreacted phosphate is removed via washing the filters.

MYLK4 [1] = target: T2, MYLK4 (Homo sapiens, UniProt Q86YV6); assay: biochemical; design: Reaction Biology HotSpot radiometric 33P-ATP catalytic assay at Km ATP; percent inhibition versus DMSO, mean n=2; details: Km ATP
T2 sequence (Q86YV6 1-388): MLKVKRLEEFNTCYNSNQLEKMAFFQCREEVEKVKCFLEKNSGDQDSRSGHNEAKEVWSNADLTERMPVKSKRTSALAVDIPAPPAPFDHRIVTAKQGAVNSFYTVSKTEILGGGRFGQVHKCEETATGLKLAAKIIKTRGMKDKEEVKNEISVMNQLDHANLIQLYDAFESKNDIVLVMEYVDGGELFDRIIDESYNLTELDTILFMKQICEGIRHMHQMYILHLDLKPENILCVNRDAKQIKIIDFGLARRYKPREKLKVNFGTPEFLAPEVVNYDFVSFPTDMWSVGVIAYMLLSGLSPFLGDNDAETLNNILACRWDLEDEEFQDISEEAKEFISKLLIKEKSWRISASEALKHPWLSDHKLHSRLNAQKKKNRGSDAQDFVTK
Description: as §1

PIM1 [2] = target: T3, PIM1 (Homo sapiens, UniProt P11309); assay: biochemical; design: Reaction Biology HotSpot radiometric 33P-ATP catalytic assay at Km ATP; percent inhibition versus DMSO, mean n=2; details: Km ATP
Description: as §1

PIM3 = PIM3 (Homo sapiens, UniProt Q86V86); assay: biochemical; design: Reaction Biology HotSpot radiometric 33P-ATP catalytic assay at Km ATP; percent inhibition versus DMSO, mean n=2; details: Km ATP
Description: as §1

HIPK1 = HIPK1 (Homo sapiens, UniProt Q86Z02); assay: biochemical; details: read-out: Niraparib
Aurora B = target: T4, Aurora B (Homo sapiens, UniProt Q96GD4); assay: biochemical; details: read-out: Niraparib
T4 construct: gene AURKB

DYRK1B = DYRK1B (Homo sapiens, UniProt Q9Y463); assay: biochemical; details: read-out: % inhibition
MYLK4 [3] = target: T2, MYLK4; assay: HotSpot radiometric kinase assay at […] (Km ATP), follow-up of KinomeScan binding; format: biochemical; details: read-out: Rucaparib
PIM1 [4] = target: T3, PIM1; assay: KinomeScan active site-directed competition binding at […]; […] catalytic inhibition at […] (n = […])
CDK16 = target: T5, CDK16 (Homo sapiens, UniProt Q00536); assay: biochemical; design: Reaction Biology HotSpot radiometric 33P-ATP catalytic assay at Km ATP; percent inhibition versus DMSO, mean n=2; details: Km ATP
T5 construct: with cyclin Y
Description: as §1

TSSK3 = target: T6, TSSK3 (Homo sapiens, UniProt Q96PN8); assay: biochemical; design: Reaction Biology HotSpot radiometric 33P-ATP catalytic assay at Km ATP; percent inhibition versus DMSO, mean n=2; details: Km ATP
T6 sequence (Q96PN8 1-268): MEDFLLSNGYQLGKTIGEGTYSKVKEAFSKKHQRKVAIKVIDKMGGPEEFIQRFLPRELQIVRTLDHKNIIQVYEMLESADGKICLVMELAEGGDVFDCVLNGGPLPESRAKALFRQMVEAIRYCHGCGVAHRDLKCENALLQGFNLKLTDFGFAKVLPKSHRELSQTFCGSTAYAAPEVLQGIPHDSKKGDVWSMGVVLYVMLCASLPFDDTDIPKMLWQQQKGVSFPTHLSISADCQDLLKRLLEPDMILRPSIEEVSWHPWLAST
Description: as §1

FLT3(ITD) = FLT3(ITD) (Homo sapiens, UniProt P36888); assay: biochemical; design: DiscoveRx KINOMEscan active site-directed competition binding; percent of control kinase bound to immobilised ligand; details: binding competition, % of control

inhibition at 1 µM (MYLK4 [3]) [%] | inhibition at 1 µM (CDK16) [%] | inhibition at 1 µM (TSSK3) [%] | Rucaparib / %Ctrl @ 10000nM (FLT3(ITD)) [%] | SMILES | inhibition at 1 µM (LATS2) [%] | inhibition at 1 µM (MYLK4 [1]) [%] | inhibition at 1 µM (PIM1 [2]) [%] | inhibition at 1 µM (PIM3) [%] | inhibition at 1 µM (HIPK1) [%] | inhibition at 1 µM (Aurora B) [%] | inhibition at 1 µM (DYRK1B) [%] | KinomeScan active site-directed competition binding at 10 μM; 27% catalytic inhi (PIM1 [4])
 |  |  |  | NC(=O)c1cccc2cn(-c3ccc([C@@H]4CCCNC4)cc3)nc12 [Niraparib] | 17 | 19 | 22 | 15 | 40 | 34 | 82 | 
36 | 82 | -1 | 41 | CNCc1ccc(-c2[nH]c3cc(F)cc4c3c2CCNC4=O)cc1 [Rucaparib] |  |  |  |  |  |  |  | recover most of the previously known off-targets of rucaparib, including the most potent known interactions with PIM1 and DYRK1A
